Assay results: publication PMC12071944, “Interaction Between Glucagon-like Peptide 1 and Its Analogs with Amyloid-β Peptide Affects Its Fibrillation and Cytotoxicity” (International Journal of Molecular Sciences, 2025)
“Also recorded” adds a separate entry of the source. Where two headings read alike, the source gives them in different places. Ends that are not written are not given here.

What was measured:
Aβ40 fibrils = assay: Negative-staining TEM of Aβ40 fibrils; format: biochemical, Human
Procedure: The scale bars represent 1 μm.
A copper grid (300-mesh) coated with a 0.2% formvar film was placed on a 10 µL drop of the sample. […] Excess stain was removed using filter paper, and the grid was rinsed in deionized water for 1 min. The samples were analyzed using a JEM-1400Plus (HC) transmission electron microscope (JEOL, Ltd., Tokyo, Japan) at an accelerating voltage of 80 keV.

SH-SY5Y cells [1] = assay: MTT assay, Aβ40 cytotoxicity toward SH-SY5Y cells; conditions: 48 h
Procedure: (§1) GLP-1RAs were premixed with Aβ40/Aβ42 at an equimolar ratio in serum-free medium and added to the SH-SY5Y cells cultured in the same medium to a final concentration of both components of 10 µM. Staining with MTT was performed after incubation of the cells for 48 h.
(§2) Mean values and standard deviations are indicated.
(§3) Human neuroblastoma SH-SY5Y cells were cultured in DMEM-F12 medium supplemented with 1% penicillin-streptomycin-glutamine and 10% fetal bovine serum at 37 °C for 24 h in a humidified atmosphere with 5% CO2. Upon reaching 80% confluence, the cells were harvested and seeded into 96-well plates at a density of 15 × 10^5 cells per well in serum-free DMEM/F12 + PSG medium.
(§4) The Aβ40/Aβ42 samples were dissolved in fresh 1% NH4OH at a concentration of 0.5 mg/mL, followed by freeze-drying.
(§5) Freshly prepared Aβ40/Aβ42, GLP-1RAs, or their mixtures were added (100 µL per well) to the cultures 24 h after seeding to a final concentration of both components of 10 µM. The final volume of medium in the well was 200 µL. The MTT assay, designed to assess cellular metabolic activity, was performed after incubation of the cells for 48 h. MTT (0.005 mg/mL) was added and the cells were incubated for 3 h, followed by solubilization of the cells using DMSO. […] The resulting values were normalized relative to the control group of the untreated cells (100%). […]

AD patients = conditions: cited from earlier work; for cognition and memory: patients with mild cognitive impairment and AD, ref [16]
From the text: Worldwide, approximately 416 million individuals are affected by AD dementia, prodromal AD, or preclinical AD, accounting for 22% of the population aged 50 years and older.

[2] = Dynamic light scattering, quaternary structure of GLP-1RAs; format: physicochemical; conditions: DLS, 25 °C, pH 7.4
Procedure: DLS measurements were carried out using a Zetasizer Nano ZS system (Malvern Instruments Ltd., Malvern, UK). The backscattered light from a 4 mW He-Ne laser at 632.8 nm was collected at an angle of 173°. […] The acquisition time for a single autocorrelation function was 100 s. The resulting autocorrelation functions were averaged values from three measurements. The volume-weighted size distributions were calculated using the following parameters for the buffer: the refractive index of 1.334 was measured using the RL3 refractometer (PZO, Warszawa, Poland); the viscosity value η = 0.95 mPa∙s was measured using a micro-rheology method with a water suspension of standard latex nanoparticles (NIST 3060A, Thermo Fisher Scientific, Waltham, MA, USA). The molecular mass and its standard deviation corresponding to the volume-weighted hydrodynamic radius MWRh distribution was calculated in approximation of a globular protein according to the equations from ref. [86]. The degree of multimerization was calculated as the MWRh/MWm ratio, where MWm is the molecular mass of the monomeric GLP-1RAs calculated from their molecular structure.

Aβ40 fibrillation = assay: ThT fluorescence assay of Aβ40 fibrillation; format: biochemical, Human; conditions: 20 µM Aβ40, 10 µM GLP-1RA, 30 °C, pH 7.4
Procedure: The influence of GLP-1RAs on Aβ40 fibril formation at 30 °C was studied using the ThT fluorescence assay at ThT and GLP-1RA concentrations of 10 μM for both components (Figure 4).
Standard deviations of the fluorescence signals are indicated. Excitation wavelength of 440 nm.
The Aβ40 sample was prepared as described in ref. [82] with some modifications (~5 mM NaOH at pH 11.8, 0.5 mg/mL). […] The control curves (without Aβ40; Figure S1) were subtracted from the corresponding kinetic curves of Aβ40 samples with/without GLP-1RAs. Each measurement was performed in 2–10 repetitions. The mean fluorescence signal values for each experimental sample were normalized to the average fluorescence signal corresponding to the saturation phase of Aβ40 fibril formation without additives. Data are presented as mean ± standard deviation.

[3] = cited from earlier work
animal AD models = conditions: ref [29]; cited from earlier work
cultured neuronal cells = conditions: ref [30], cited from earlier work
[4] = test system: Aβ levels in the mouse brain; conditions: in vivo; ref [30]; cited from earlier work
From the text: The N-terminally truncated forms of GLP-1, GLP-1(7-36)/(7-37), secreted from intestinal L cells, control meal-related glycemic excursions by augmentation of insulin expression and secretion and inhibition of glucagon release (reviewed in [21]). Some population of neurons in the nucleus tractus solitarii of the brainstem can also express GLP-1 [22, 23].

SH-SY5Y cells [5] = assay: MTT assay, Aβ42 cytotoxicity toward SH-SY5Y cells; conditions: 48 h
Procedure: as §1, §2, §3, §4
Freshly prepared Aβ40/Aβ42, GLP-1RAs, or their mixtures were added (100 µL per well) to the cultures 24 h after seeding to a final concentration of both components of 10 µM. The final volume of medium in the well was 200 µL. The MTT assay, designed to assess cellular metabolic activity, was performed after incubation of the cells for 48 h. MTT (0.005 mg/mL) was added and the cells were incubated for 3 h, followed by solubilization of the cells using DMSO. […] The resulting values were normalized relative to the control group of the untreated cells (100%). Data are presented as mean ± standard deviation (n = 5–10).

[6] = b29: plasma concentrations; ref [61],[62]; cited from earlier work
serum albumin (HSA) = conditions: attached fatty acid chain; ref [44],[45]; cited from earlier work
APP/PS1 AD mice = conditions: ref [47],[48],[49]; cited from earlier work
SH-SY5Y cells [7] = assay: MTT assay, Aβ (Aβ40/Aβ42) cytotoxicity toward SH-SY5Y cells; conditions: 10 µM Aβ40/Aβ42 and 10 µM GLP-1RA, 48 h, summary table
Procedure: as §1, §2, §3, §4, §5

For amyloid-β peptide, residues 1-40 [Aβ40], which fibril length (Aβ40 fibrils; printed as "up to", Aβ40 with 10 μM GLP-1RA) is on record?
Its fibril length is “up to 2 µm”.

What about the “decrease in cell survival” value (SH-SY5Y cells [1]; 10 µM Aβ40 alone, n = 5–10) of the same compound?
Its value is 22%.

With donanemab as the compound, how does the side effects (AD patients; human, in vivo) read?
The side effects was “brain edema and microhemorrhages”.

With `CC[C@H](C)[C@H](NC(=O)[C@H](Cc1ccccc1)NC(=O)[C@H](CCC(=O)O)NC(=O)[C@H](CCCCN)NC(=O)[C@H](C)NC(=O)[C@H](C)NC(=O)[C@H](CCC(N)=O)NC(=O)CNC(=O)[C@H](CCC(=O)O)NC(=O)[C@H](CC(C)C)NC(=O)[C@H](Cc1ccc(O)cc1)NC(=O)[C@H](CO)NC(=O)[C@H](CO)NC(=O)[C@@H](NC(=O)[C@H](CC(=O)O)NC(=O)[C@H](CO)NC(=O)[C@@H](NC(=O)[C@H](Cc1ccccc1)NC(=O)[C@@H](NC(=O)CNC(=O)[C@H](CCC(=O)O)NC(=O)[C@H](C)NC(=O)[C@@H](N)Cc1c[nH]cn1)[C@@H](C)O)[C@@H](C)O)C(C)C)C(=O)N[C@@H](C)C(=O)N[C@@H](Cc1c[nH]c2ccccc12)C(=O)N[C@@H](CC(C)C)C(=O)N[C@H](C(=O)N[C@@H](CCCCN)C(=O)NCC(=O)N[C@@H](CCCNC(=N)N)C(=O)NCC(=O)O)C(C)C` [GLP-1(7-37)] as the compound, how does the “oligomerization, in words” value [2] read?
Its value is “strong oligomerization”.

What about the “molecular mass from Rh (MWRh)” value ([2]; 5–83 µM, globular protein approximation) of the same compound?
The value was >7 × 10^5 kDa.

And the “Effect on Aβ40 Fibrillation (Figure 4 and Figure 5)” value (Aβ40 fibrillation; ThT assay and TEM, summary table)?
Its value is “Inhibition”.

And the “effect on Aβ40 fibrillation” value (Aβ40 fibrillation; ThT assay, 10 μM ThT, 25 mM Tris-HCl, 140 mM NaCl, ex 440/em 485 nm, 2–10 repetitions)?
The value was “inhibit Aβ40 fibrillation; also recorded: suppressed Aβ40 fibrillation; also recorded: suppression of Aβ40 fibrillation”.

And the “ability to cross the BBB” value ([3]; in vivo)?
Its value is “possessed”.

And the “AD Animal Data: learning and memory” value (animal AD models)?
Its value is “Positive effects on learning and memory [29]”.

For glucagon-like peptide 1 [GLP-1], which “appearance of Aβ40 fibrils by TEM” value (Aβ40 fibrils; after ThT assay, 20 µM Aβ40 with 10 μM GLP-1RA, 1% uranyl acetate) is on record?
Its value is “sporadic small fibril clusters were still observed”.

For insulin [intranasal insulin], which cognition and memory (AD patients) is on record?
Its cognition and memory is “can improve cognition and memory”.

Which “protection against Aβ/iron-induced death” value (cultured neuronal cells; cultured hippocampal neurons) does the source give for “GLP-1(7-36): N-terminally truncated form of glucagon-like peptide 1, residues 7-36 (HAEGTFTSDVSSYLEGQAAKEFIAWLVKGR; ends and bridges not checked; UniProt P01275 98-127, looked up)” here?
Its value is “protects cultured hippocampal neurons against Aβ/iron-induced death”.

And the “levels of APP” value (cultured neuronal cells; cultured neuronal cells)?
Its value is “decrease levels of APP in cultured neuronal cells”.

And the “Aβ levels in the mouse brain” value [4]?
The value was “reduce Aβ levels in the mouse brain in vivo”.

For amyloid-β peptide, residues 1-42 [Aβ42], which “decrease in cell survival” value (SH-SY5Y cells [5]; 10 µM Aβ42 alone, n = 5–10) is on record?
Its value is 37%.

Which cognition and memory (AD patients) does the source give for `CN(C)C(=N)N=C(N)N` [metformin] here?
The cognition and memory was “can improve cognition and memory”.

With `CCCCCCCCCCCCCCCC(=O)N[C@@H](CCC(=O)NCCCC[C@H](NC(=O)[C@H](C)NC(=O)[C@H](C)NC(=O)[C@H](CCC(N)=O)NC(=O)CNC(=O)[C@H](CCC(=O)O)NC(=O)[C@H](CC(C)C)NC(=O)[C@H](Cc1ccc(O)cc1)NC(=O)[C@H](CO)NC(=O)[C@H](CO)NC(=O)[C@@H](NC(=O)[C@H](CC(=O)O)NC(=O)[C@H](CO)NC(=O)[C@@H](NC(=O)[C@H](Cc1ccccc1)NC(=O)[C@@H](NC(=O)CNC(=O)[C@H](CCC(=O)O)NC(=O)[C@H](C)NC(=O)[C@@H](N)Cc1cnc[nH]1)[C@@H](C)O)[C@@H](C)O)C(C)C)C(=O)N[C@@H](CCC(=O)O)C(=O)N[C@@H](Cc1ccccc1)C(=O)N[C@H](C(=O)N[C@@H](C)C(=O)N[C@@H](Cc1c[nH]c2ccccc12)C(=O)N[C@@H](CC(C)C)C(=O)N[C@H](C(=O)N[C@@H](CCCNC(=N)N)C(=O)NCC(=O)N[C@@H](CCCNC(=N)N)C(=O)NCC(=O)O)C(C)C)[C@@H](C)CC)C(=O)O` [Lira, liraglutide] as the compound, how does the “ability to cross the BBB” value ([3]; conclusions, ref Table 4) read?
Its value is “possessed”.

And the peak plasma concentrations [6]?
Its peak plasma concentrations is 20 to 120 nM.

What about the “binding to serum albumin / clearance” value (serum albumin (HSA)) of the same compound?
The value was “favors binding to serum albumin, thereby slowing the clearance of Lira”.

What about the “crosses the BBB” value (APP/PS1 AD mice) of the same compound?
The value was “crosses the BBB”.

And the “effect on Aβ40 cytotoxicity” value (SH-SY5Y cells [1]; 10 µM Aβ40 + 10 µM GLP-1RA, serum-free medium)?
Its value is “abolished this effect”.

What about the “effect on Aβ42 cytotoxicity” value (SH-SY5Y cells [5]; 10 µM Aβ42 + 10 µM GLP-1RA, serum-free medium) of the same compound?
The value was “abolished this effect; also recorded: most pronounced increase in the viability of SH-SY5Y cells”.

And the “Effect on Aβ Cytotoxicity to SH-SY5Y Cells (Figure 7)” value (SH-SY5Y cells [7])?
Its value is “Protection”.
